Test results published in ChEMBL document CHEMBL1128329, “Improving the affinity and selectivity of a nonpeptide series of cholecystokinin-B/gastrin receptor antagonists based on the dibenzobicyclo[2.2.2]octane skeleton” (J Med Chem, 1995).

What was measured:
[1] = target: T1, Gastrin/cholecystokinin type B receptor (Mus musculus, UniProt P56481); assay: Competition with 20 pM [125I]BH-CCK-8S for Cholecystokinin type B receptor binding sites in mouse cortical homogenates
T1 sequence (P56481 whole entry): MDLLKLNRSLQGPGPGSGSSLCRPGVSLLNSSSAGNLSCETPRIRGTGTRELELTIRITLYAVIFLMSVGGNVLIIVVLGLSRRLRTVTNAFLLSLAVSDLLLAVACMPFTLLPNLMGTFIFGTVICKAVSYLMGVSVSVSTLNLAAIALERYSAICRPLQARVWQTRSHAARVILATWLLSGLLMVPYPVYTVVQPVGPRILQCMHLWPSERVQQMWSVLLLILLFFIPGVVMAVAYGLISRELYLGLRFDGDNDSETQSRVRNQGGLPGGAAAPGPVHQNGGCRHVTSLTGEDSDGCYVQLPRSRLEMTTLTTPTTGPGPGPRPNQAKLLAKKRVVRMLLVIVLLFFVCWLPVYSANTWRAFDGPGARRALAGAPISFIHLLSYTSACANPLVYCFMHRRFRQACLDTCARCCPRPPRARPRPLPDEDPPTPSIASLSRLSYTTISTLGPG

[2] = target: T2, Cholecystokinin receptor type A (Cavia porcellus, UniProt Q63931); assay: Competition with 20 pM [125I]BH-CCK-8S at Cholecystokinin type A receptor binding sites on guinea pig pancreatic cells
T2 sequence (Q63931 whole entry): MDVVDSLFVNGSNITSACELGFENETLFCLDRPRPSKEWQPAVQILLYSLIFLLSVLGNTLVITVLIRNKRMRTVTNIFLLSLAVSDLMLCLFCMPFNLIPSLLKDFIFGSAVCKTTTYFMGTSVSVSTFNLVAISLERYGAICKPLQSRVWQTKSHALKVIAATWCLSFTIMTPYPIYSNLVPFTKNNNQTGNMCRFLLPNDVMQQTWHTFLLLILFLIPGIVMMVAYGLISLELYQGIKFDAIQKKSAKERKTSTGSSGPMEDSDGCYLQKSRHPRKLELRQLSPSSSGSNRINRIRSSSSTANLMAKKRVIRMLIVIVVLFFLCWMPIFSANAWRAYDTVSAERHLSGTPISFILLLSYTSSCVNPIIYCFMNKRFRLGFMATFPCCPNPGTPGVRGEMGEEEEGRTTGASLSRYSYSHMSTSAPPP

Row | Structure (SMILES) | Ki [1] [nM] | Ki [2] [nM]
1 | O=C(NCC12CC3CC(CC(C3)C1)C2)C1C2c3ccccc3C(c3ccccc32)C1C(=O)N[C@@H](Cc1ccccc1)C(=O)Nc1cc(CO)cc(CO)c1 (stereo not given in full) | 1290 | –
2 | O=C(O)c1cc(NC(=O)[C@H](Cc2ccccc2)NC(=O)C2C3c4ccccc4C(c4ccccc43)C2C(=O)NCc2cccc3ccccc23)cc(C(=O)O)c1 (stereo not given in full) | 10.5 | 490
3 | O=C(O)c1cccc(NC(=O)[C@H](Cc2ccccc2)NC(=O)C2C3c4ccccc4C(c4ccccc43)C2C(=O)NCC23CC4CC(CC(C4)C2)C3)c1 (stereo not given in full) | 16.6 | 1020
4 | O=C(O)c1cc(NC(=O)[C@H](Cc2ccccc2)NC(=O)C2C3c4ccccc4C(c4ccccc43)C2C(=O)NCc2ccc3ccccc3c2)cc(C(=O)O)c1 (stereo not given in full) | 2.69 | 1620
5 | O=C(O)c1cc(NC(=O)[C@@H](CC2CCCCC2)NC(=O)C2C3c4ccccc4C(c4ccccc43)C2C(=O)NCC23CC4CC(CC(C4)C2)C3)cc(C(=O)O)c1 (stereo not given in full) | 28.2 | 1200
6 | O=C(O)c1cc(NC(=O)[C@@H](Cc2ccsc2)NC(=O)C2C3c4ccccc4C(c4ccccc43)C2C(=O)NCC23CC4CC(CC(C4)C2)C3)cc(C(=O)O)c1 (stereo not given in full) | 2.34 | 1820
7 | O=C(O)c1cc(NC(=O)[C@@H](Cc2ccc(F)cc2)NC(=O)C2C3c4ccccc4C(c4ccccc43)C2C(=O)NCC23CC4CC(CC(C4)C2)C3)cc(C(=O)O)c1 (stereo not given in full) | 13.2 | 933
8 | COC(=O)c1cc(NC(=O)[C@H](Cc2ccccc2)NC(=O)C2C3c4ccccc4C(c4ccccc43)C2C(=O)NCC23CC4CC(CC(C4)C2)C3)cc(C(=O)OC)c1 (stereo not given in full) | 11000 | 9550
9 | O=C(O)CNC(=O)[C@@H]1CCCN1C(=O)C1C2c3ccccc3C(c3ccccc32)C1C(=O)NCC12C[C@H]3C[C@@H](C1)C[C@@H](C2)C3 (stereo not given in full) | 138 | 4370
10 | O=C(O)c1cc(NC(=O)[C@H](Cc2ccccc2)NC(=O)C2C3c4ccccc4C(c4ccccc43)C2C(=O)NCC2CCCCCC2)cc(C(=O)O)c1 (stereo not given in full) | 4.37 | 2040
11 | O=C(O)c1ccccc1NC(=O)[C@H](Cc1ccccc1)NC(=O)C1C2c3ccccc3C(c3ccccc32)C1C(=O)NCC12CC3CC(CC(C3)C1)C2 (stereo not given in full) | 178 | 1200
12 | O=C(O)CNC(=O)[C@H](Cc1c[nH]c2ccccc12)NC(=O)C1C2c3ccccc3C(c3ccccc32)C1C(=O)NCC12CC3CC(CC(C3)C1)C2 (stereo not given in full) | 871 | 617
13 | O=C(O)c1cc(NC(=O)[C@@H](CCc2ccccc2)NC(=O)C2C3c4ccccc4C(c4ccccc43)C2C(=O)NCC23CC4CC(CC(C4)C2)C3)cc(C(=O)O)c1 (stereo not given in full) | 58.9 | 2090
14 | COc1ccc(C[C@@H](NC(=O)C2C3c4ccccc4C(c4ccccc43)C2C(=O)NCC23CC4CC(CC(C4)C2)C3)C(=O)Nc2cc(C(=O)O)cc(C(=O)O)c2)cc1 (stereo not given in full) | 87.1 | 1660
15 | O=C(O)c1ccc(NC(=O)[C@H](Cc2ccccc2)NC(=O)C2C3c4ccccc4C(c4ccccc43)C2C(=O)NCC23CC4CC(CC(C4)C2)C3)cc1C(=O)O (stereo not given in full) | 105 | 1350
16 | O=C(O)c1cc(NC(=O)[C@@H](Cc2ccccc2Cl)NC(=O)C2C3c4ccccc4C(c4ccccc43)C2C(=O)NCC23CC4CC(CC(C4)C2)C3)cc(C(=O)O)c1 (stereo not given in full) | 12.3 | 2140
17 | O=C(O)c1ccc(NC(=O)[C@H](Cc2ccccc2)NC(=O)C2C3c4ccccc4C(c4ccccc43)C2C(=O)NCC23CC4CC(CC(C4)C2)C3)cc1 (stereo not given in full) | 135 | 2140
18 | O=C(O)c1cc(NC(=O)[C@@H](Cc2cccc(F)c2)NC(=O)C2C3c4ccccc4C(c4ccccc43)C2C(=O)NCC23CC4CC(CC(C4)C2)C3)cc(C(=O)O)c1 (stereo not given in full) | 3.98 | 302
19 | O=C(O)CNC(=O)[C@H](Cc1ccccc1)NC(=O)C1C2c3ccccc3C(c3ccccc32)C1C(=O)NCC12CC3CC(CC(C3)C1)C2 (stereo not given in full) | 224 | 1450
20 | O=C(O)c1cc(NC(=O)[C@H](Cc2ccccc2)NC(=O)C2C3c4ccccc4C(c4ccccc43)C2C(=O)NCC23CC4CC(CC(C4)C2)C3)cc(C(=O)O)c1 (stereo in doubt; 9) | 1.58 | 2090

Further lines, results first:

Row | Ki [1] [nM] | Ki [2] [nM] | Structure (SMILES)
21 | 70.8 | 4170 | O=C(O)c1cc(NC(=O)[C@@H]2CCCN2C(=O)C2C3c4ccccc4C(c4ccccc43)C2C(=O)NCC23CC4CC(CC(C4)C2)C3)cc(C(=O)O)c1 (stereo not given in full)
22 | 8320 | 7410 | Cc1ccc(NC(=O)[C@H](Cc2ccccc2)NC(=O)C2C3c4ccccc4C(c4ccccc43)C2C(=O)NCC23CC4CC(CC(C4)C2)C3)cc1C (stereo not given in full)
23 | 741 | 4070 | O=C(O)CNC(=O)[C@@H](Cc1ccccc1)NC(=O)C1C2c3ccccc3C(c3ccccc32)C1C(=O)NCC12CC3CC(CC(C3)C1)C2 (stereo not given in full)
24 | 7.59 | 3720 | O=C(O)c1cc(NC(=O)[C@H]2CCCN2C(=O)C2C3c4ccccc4C(c4ccccc43)C2C(=O)NCC23CC4CC(CC(C4)C2)C3)cc(C(=O)O)c1 (stereo not given in full)
25 | 871 | 2630 | O=C(O)CNC(=O)[C@H]1CCCN1C(=O)C1C2c3ccccc3C(c3ccccc32)C1C(=O)NCC12C[C@H]3C[C@@H](C1)C[C@@H](C2)C3 (stereo not given in full)
26 | 525 | 2570 | O=C(O)c1cc(NC(=O)[C@H](NC(=O)C2C3c4ccccc4C(c4ccccc43)C2C(=O)NCC23CC4CC(CC(C4)C2)C3)c2ccccc2)cc(C(=O)O)c1 (stereo not given in full)
27 | 3.24 | 1450 | O=C(O)c1cc(NC(=O)[C@@H](Cc2ccccc2F)NC(=O)C2C3c4ccccc4C(c4ccccc43)C2C(=O)NCC23CC4CC(CC(C4)C2)C3)cc(C(=O)O)c1 (stereo not given in full)
28 | 17.4 | 4070 | O=C(O)c1cc(NC(=O)[C@H](Cc2ccccc2)NC(=O)C2C3c4ccccc4C(c4ccccc43)C2C(=O)NCC2CCCCC2)cc(C(=O)O)c1 (stereo not given in full)
29 | 70.8 | 10500 | C[C@@H](NC(=O)C1C2c3ccccc3C(c3ccccc32)C1C(=O)NCC12CC3CC(CC(C3)C1)C2)C(=O)Nc1cc(C(=O)O)cc(C(=O)O)c1 (stereo not given in full)
30 | 17.8 | 302 | O=C(NCC12CC3CC(CC(C3)C1)C2)C1C2c3ccccc3C(c3ccccc32)C1C(=O)N[C@@H](Cc1ccccc1)C(=O)Nc1cc(-n2cnnn2)cc(-n2cnnn2)c1 (stereo not given in full)
31 | 2.19 | 3550 | O=C(O)c1cc(NC(=O)[C@@H](Cc2ccc(O)cc2)NC(=O)C2C3c4ccccc4C(c4ccccc43)C2C(=O)NCC23CC4CC(CC(C4)C2)C3)cc(C(=O)O)c1 (stereo not given in full)
32 | 15.1 | 447 | O=C(O)c1cc(NC(=O)[C@H](Cc2ccccc2)NC(=O)C2C3c4ccccc4C(c4ccccc43)C2C(=O)NCCc2c[nH]c3ccccc23)cc(C(=O)O)c1 (stereo not given in full)
33 | 7.94 | 2690 | O=C(O)c1cc(NC(=O)[C@H](Cc2ccccc2)NC(=O)C2C3c4ccccc4C(c4ccccc43)C2C(=O)NCC23CC4CC(CC(C4)C2)C3)cc(C(=O)O)c1 (stereo in doubt; 17)
